# From patent publication US10085445B2, “Biocorrosion inhibitor for metal” (KURARAY CO., LTD., priority 2013, dated 2018)
# Experiments:
# [1] = system: male CRj:CD(SD) rats; experiment: Oral toxicity test (14-day repeated dose); format: in vivo, rat; details: for NOEL (No Observed Effect Level): oral gavage once per day for 14 days, male rats
# From the text: A test substance was emulsified and dispersed in 2%-gum arabic aqueous solution (containing 0.5%-Tween80), and forcibly administered to 6-week-old male CRj:CD(SD) rats with an oral gavage needle once per day for 14 days. The body weight variation and general condition were observed during the dosing period. The rats were fasted for one day from the final administration day (with free ingestion of drinking water), and anatomy, collection of blood samples (various blood tests), and mass measurement of the major organs were performed the next day of the final administration. In addition, histopathological examination (optical microscopic observation of HE-stained sliced section) of the liver, kidney, spleen and testis was also performed. The dose was 1000, 250, 60, 15 or 0 mg/k day (administered liquid amount=1 ml/100 g (body weight)/day), and 5 rats were used for each dose.
# [2] = system: sludge in the sewage treatment plant; experiment: Bactericidal test on sludge (MTT method); format: cell-based; details: 24 hr and 48 hr, about 25° C., visual and MTT
# Description: Glucose, peptone, and monopotassium dihydrogen phosphate (each 5 g) were dissolved in water (1 L), and adjusted to pH 7.0±1.0 with sodium hydroxide to give synthetic sewer water, to which sludge in the sewage treatment plant in Mizushima area, Kurashiki-shi, Okayama-ken, Japan, was added at 30 ppm based on dry mass, whereby a bacterial culture was prepared. On the other hand, a test substance was diluted with distilled water in 10 phases to a final concentration of 1000-0.004 ppm (geometric ratio=4) on a 24 well microplate, and used as a test solution. Two wells were used for each concentration. As a comparison target, distilled water+bacterial culture was used as “bacterial culture blank”, and distilled water alone was used as “blank”.
# The bacterial culture and test solution prepared above were mixed at a volume ratio 1:1, stood in a thermostatic tank at ambient temperature (about 25° C.) for 24 hr and 48 hr, and the level of sludge influence at each concentration of the test substance was visually observed and confirm by the MTT method. MTT reagent is converted by microorganism mitochondria in the sludge, forms formazan and develops a blue color.
# [3] = system: Pseudokirchneriella subcapitata; experiment: Toxicity test on algae (algae growth inhibitory test, OECD 201); format: cell-based; details: Selenastrum capricornutum; 72 hr, 23° C., growth inhibition; read-out: ErC50 (72 hr)
# Description: By reference to the OECD test guideline No. 201, an algae growth inhibitory test of a test substance was performed. To be specific, the following test substance was diluted with a test medium to give a defined dose. A suspension of algae grown to the exponential growth phase by preculture was added at an initial concentration of 1×10^4 cells/ml. After shaking culture in a light irradiation-type bio shaker (Bio Shaker BR-180 LF manufactured by TAITEC) at 23° C., algae cells were counted by a flow cytometer (Cell Lab Quant SC manufactured by BECKMAN COULTER) at 24, 48, and 72 hr from the start of the test, and the growth degree of each test dose was calculated based on the growth degree of the normal control as 100%. Also, ErC50 was calculated from the equation of the approximate curve in a graph plotting the growth inhibitory rate. As a standard substance, potassium dichromate was used.
# algae: Pseudokirchneriella subcapitata
# test substance (1) and test substance (2), 100, 32, 10, 3.2, 1, 0.32 mg/L (geometric ratio: √{square root over ( )}10) and 0 mg/L (normal control), respectively
# standard substance: 3.2, 1, 0.32 mg/L and 0 mg/L (normal control)
Compound,"death case ([1]; maximum dose of 1000 mg/kg/day, oral, 14 days)",NOEL (No Observed Effect Level) [1] [mg/kg],sterilizing concentration [2] [ppm],EC50 [3] [µg/mL]
"O=CCCCCCCCC=O [NL, 1,9-nonanedial]",death case was not found,250,–,–
O=CCCCC=O [glutaraldehyde],–,5,63,9
